Source: US20100069316A1, “TREATMENT FOR MULTIPLE MYELOMA” (Ares Trading S.A., priority 2006, published 2010)
Like-named read-outs stand apart in the source and are kept apart here.

Tests used:
Format in all cases: cell-based, human
[1] = test system: L363 myeloma cell line; test: Cell proliferation assay (tritiated thymidine incorporation), L363; conditions: alone or with fixed Velcade/Melphalan; for IC50: concentration of compound A yielding 50% inhibition of proliferation, read-out: IC50; for IC90: concentration of compound A yielding 90% inhibition of proliferation
Method: (§1) Myeloma cells were harvested in the exponential growth phase (at day 3 after culture passage when the cell concentration is around 5×10^5 cells/ml). Cells were washed twice, cultured for 3 hours in RPMI1640 and 10% FCS, washed twice. This makes it possible to remove cell-bound growth factors (in particular recombinant IL-6). Then cells are plated in 96-well flat-bottomed microplates at various concentrations depending on their doubling time: • 5×10^3 cells/well in 100 μl for the cell lines: XG-1, XG-7 • 10^4 cells/well in […] for the cell lines: XG-2, XG-4, XG-6, XG-11, PRMI8226, L363 • 2×10^4 cells/well in 100 μl for the cell lines: XG-3, XG-12, XG-13, XG-14, XG-19, XG-20
(§2) The culture medium used were: • PRMI1640, 10% FCS and 0.5 ng/ml of IL-6 for XG-1, XG-2, XG-3, XG-4, XG-6, XG-7, XG-11, XG-12, XG-13, XG-19, XG-20 cells • X-VIVO20 and 0.5 ng/ml IL-6 for XG-14 cells • PRMI1640 and 10% FCS for RPMI8226 and L363 cells
(§3) The diluted compounds, DMSO or control culture medium were added in 100 μl at the start of the culture. Three culture wells were done for one compound dilution and the experiments were done twice (finally six culture wells for one compound dilution).
(§4) Cells were cultured for 4 days. Eight hours before the end of the culture, 0.5 μCi of tritiated thymidine were added in 50 μl of RPMI1640 and 10% FCS. Cells were then extracted with a cell collector and the thymidine incorporation was determined using a beta cell counter.
(§5) For each experiment, the mean tritiated thymidine incorporations (mean values determined on three culture wells) were plotted against the logarithmic concentrations of the compound. The curves were fitted with exponential regression, which was determined using the concentrations defining the inhibition response (usually 3-4 concentrations).
(§6) The concentrations yielding 50% and 90% inhibition of the proliferation of myeloma cells were determined with these regression curves.
(§7) The concentration yielding 10% (IC10) or 50% (IC50) inhibition of the myeloma cell lines were determined and the data are listed in Table 2.
(§8) Compound A was tested in combination with melphalan or Velcade. Increasing concentration of compound A (0, 0.01, 0.03, 0.12, 0.37, 1.1, 3.1, 10, 30 μM) were applied on 4 myeloma cell lines alone or in combination with Velcade or melphalan at concentration yielding around 10% or 50% inhibition.

[2] = test system: XG-12 myeloma cell line; test: Detection of apoptosis (FITC-annexin V), XG-12; conditions: day 3 of culture
Text: (§9) Apoptotic cells were detected using fluorescein isothiocyanate-labelled annexin V (FITC-annexin-V, Boehringer Mannheim). Annexin V has a high affinity for phosphatidylserine present on the outer cytoplasmic membrane of apoptotic cells. Cells were washed, labeled with FITC-annexin-V according to the manufacturer's recommendations and analyzed with a FACScan flow cytometer using Cell Quest software (Becton Dickinson, Moutain View, Calif., USA).
(§10) Two myeloma cell lines (XG-3 and XG-12) that are sensitive to compound A (1-(4-{4-[4-(4-chlorophenyl)-pyrimidin-2-ylamino]-benzoyl}-piperazin-1-yl)-ethanone) were selected for the study. To assess the effect of compound A on myeloma cell survival, the percentage apoptotic cells was determined using binding of annexin V to apoptotic cells. The effect of compound A on the cell cycle was assessed by evaluating the percentage of cells in the S phase of the cell cycle by incorporation of BrdU-FITC. Apoptosis, cell cycle and cell numeration were evaluated daily on a four day culture period on the cell lines using the IC10, IC50 and I90 respective doses of compound A.

[3] = test system: non-myeloma bone marrow cells; test: Ex vivo survival of non-myeloma bone marrow cells; conditions: bone marrow cells of 10 myeloma patients, 5 days, 1, 3.3, 10 μM
Method: Bone marrow cells from 10 patients with multiple myeloma (5 patients at diagnosis and 5 relapsing patients) were harvested and mononuclear cells isolated by ficoll hypaque centrifugation.
At day 5, cell numbers were counted and the percentage and counts of myeloma cells were determined by FACS staining using an anti-CD138 monoclonal antibody. This made it possible to assay for viable myeloma cells as CD138 is lost on pre-apoptotic myeloma cells (Jourdan, M. et al. (1998) Br. J. Haematol., 100, 637-648). The percentage and count of CD34 hematopoietic progenitors was also determined with an anti-CD34 monoclonal antibody and FACS labeling.
Bone marrow mononuclear cells from 5 patients with newly diagnosed multiple myeloma or from 5 patients with relapsing multiple myeloma were cultured for 5 days with culture medium and 10% fetal calf serum. […] At the end of culture, cells were counted. Viable myeloma cells were determined using FACS labeling with anti-CD138 monoclonal antibody, as well as viable hematopoietic stem cells using an anti-CD34 monoclonal antibody. Results are expressed as the percentage of viable myeloma cells, non-myeloma cells, or CD34 cells compared to the control culture group without inhibitor.

[4] = test system: XG12 myeloma cell line; test: Cell proliferation assay (tritiated thymidine incorporation), XG12; conditions: Homo sapiens, XG12, alone or with fixed Velcade/Melphalan
Method: as §1, §2, §3, §4, §5, §6, §7, §8

[5] = test system: XG-3 myeloma cell line; test: Detection of apoptosis (FITC-annexin V), XG-3; conditions: day 3 of culture
Text: as §9, §10

[6] = test system: 4 myeloma cell lines; test: Combination study of compound A with Velcade or melphalan, proliferation; conditions: XG3, XG12, XG7, L363
Method: as §1, §2, §3
Cells were cultured for 4 days. […] Cells were then extracted with a cell collector and the thymidine incorporation was determined using a beta cell counter. […]

[7] = test system: XG-3 myeloma cell line; test: Cell numeration, XG-3; conditions: day 3 of culture
Method: as §10

[8] = XG-3, compound A at IC10 concentration
[9] = XG-3, compound A at IC50 concentration
[10] = XG-3, compound A at IC90 concentration

CC(=O)N1CCN(C(=O)c2ccc(Nc3nccc(-c4ccc(Cl)cc4)n3)cc2)CC1 [Compound A, 1-(4-{4-[4-(4-Chloro-phenyl)-pyrimidin-2-ylamino]-benzoyl}-piperazin-1-yl)-ethanone]
IC50 ([1]; Homo sapiens, L-363, L363): 2.33 µM | IC90 ([1]; Homo sapiens, L-363, L363): 10.1 µM | IC50 ([1]; L363): 1.79 µM | IC90 ([1]; L363): 9.41 µM | Annexin V (%) percentage of apoptotic cells ([2]; XG-12, compound A at IC50 concentration): 39.5% | Annexin V (%) percentage of apoptotic cells ([2]; XG-12, compound A at IC90 concentration): 79.8% | survival of other (non-myeloma) bone marrow cells [3]: without affecting the survival of other bone marrow cells | IC50 ([4]; concentration of compound A yielding 50% inhibition of proliferation, read-out: IC50): 0.974 µM | IC90 ([4]; concentration of compound A yielding 90% inhibition of proliferation): 3.92 µM | Annexin V (%) percentage of apoptotic cells [5, 8]: 29.2% | Annexin V (%) percentage of apoptotic cells [5, 9]: 30.7% | Annexin V (%) percentage of apoptotic cells [5, 10]: 48.2% | effect of combination with Melphalan on inhibition of myeloma cell proliferation ([6]; Melphalan at IC10 or IC50): additive effect | effect of combination with Velcade on inhibition of myeloma cell proliferation ([6]; Velcade at IC10 or IC50): additive effect | Cells (×10^6/ml) cell counts [7, 8]: 0.68 ×10^6/ml | Cells (×10^6/ml) cell counts [7, 9]: 0.47 ×10^6/ml | Cells (×10^6/ml) cell counts [7, 10]: 0.29 ×10^6/ml
